The values that follow come from patent publication US12171745B2, “Compositions and methods for treating non-hemorrhagic closed head injury” (Boulder BioScience LLC, priority 2022, dated 2024).

Series [1] has as its system Moderate-to-Severe TBI in the Sprague Dawley Rat. Briefly: Extracellular Vesicle (EV) isolation and measurement after lateral fluid percussion TBI. The conditions noted are these: plasma EVs 1 day post-surgery, NTA. In kind it is in vivo. The source says:
(§1) Evaluation of 3,3′-diindolylmethane (DIM) in a clinically relevant animal model of Traumatic Brain Injury (TBI) utilized the Lateral Fluid Percussion (LFP) brain injury method. LFP is the most established and frequently used method for evaluating mixed focal and diffuse brain injury (Thompson H J, Lifshitz J, Marklund N, Grady M S, Graham D I, Hovda D A, McIntosh T K. Lateral fluid percussion brain injury: a 15-year review and evaluation. J Neurotrauma. 2005 January; 22(1):42-75.). Using rats, the parasagittal LFP model recreates the physiological, pathological, and neurobehavioral sequela of TBI in humans. […] Over the days following surgery, rats were assessed for sensorimotor deficits, associative learning and memory, cortical and hippocampal edema, Extracellular Vesicle (EV) levels, and histopathological damage. […]
(§2) Approximately 12-24 h after the preparation surgery, the rats were anesthetized with 3% isoflurane, 70% nitrous oxide and 30% oxygen, intubated, connected to a respirator, and ventilated to be maintained on 1-3% isoflurane in a mixture of 70% nitrous oxide and oxygen. […] Following administration of pancuronium, TBI DIM Premix and Vehicle group rats inspired oxygen was reduced to 21% to maintain blood pO2 levels at approximately 85-95 mmHg. pCO2 levels were monitored to remain at physiological levels of 34 to 46 mmHg. […]

The conditions of series [2]: Eur. J. Pharmacol. 2022; 919:174812; cited from earlier work.
For series [3], the system named is Moderate-to-Severe TBI in the Sprague Dawley Rat. Briefly: Histology analysis (H&E, NeuN) after lateral fluid percussion TBI. The conditions noted are these: 10 days post FPI. In kind it is in vivo.
Excerpt: as §1, §2

A short description of series [4]: Solubility of aripiprazole in the SMEDDS DIM formulation.
For series [5] the following is noted: Clin. Cancer Res. 10:5233-5241 (2004); cited from earlier work.

Consider `c1ccc2c(Cc3c[nH]c4ccccc34)c[nH]c2c1` [DIM, 3,3′-diindolylmethane], for which the “EV concentration (numbers)” value in series [1] (versus TBI Vehicle, p=0.0415) is recorded as “prevented the significant increase in EV numbers”. Besides, the EV particle size result in series [1] (versus untreated TBI animals, p=0.0117) is given as “maintenance of a larger EV particle size”. Further, in series [2], the Anti-thrombotic activity entry was “anti-thrombotic activity” and the Bleeding time result is recorded as “prolong bleeding time”. In addition, in series [3], the “Animals with cortical contusion absent” value is given as 50%.
On to `O=C1CCc2ccc(OCCCCN3CCN(c4cccc(Cl)c4Cl)CC3)cc2N1` [aripiprazole], for which, in series [4], the “Solubility of the aripiprazole in the SMEDDS DIM formulation” value was “approximately 1.5%”. The “Dissolution of aripiprazole in SMEDDS DIM, observation” value in series [4] (1.2% (10 mg aripiprazole, 0.81 grams SMEDDS DIM), stored overnight, warmed to about 35 degrees C.) is “all had dissolved”; in series [4] (2.0% (10 mg aripiprazole, 0.49 grams SMEDDS DIM), stored overnight, warmed to about 35 degrees C.) it was “had not quite dissolved”; in series [4] (5.0% (25 mg aripiprazole, 0.475 grams SMEDDS DIM)) it was “white solids clearly present”; in series [4] (10% (50 mg aripiprazole, 0.45 grams SMEDDS DIM)), “white solids clearly present”. Moreover, in series [4] (2.0% (10 mg aripiprazole, 0.49 grams SMEDDS DIM)), the “Aripiprazole still in suspension” value is on record as “less than 2 mg”. In series [4] (in standard dose of 100 mg DIM contained in 825 mg of the SMEDDS DIM), the “Dose of aripiprazole that can be dissolved” value was “up to 10 mg”.
Take `OCc1c[nH]c2ccccc12` [indole-3-carbinol]: the Conversion in vivo entry in series [5] was “converts to DIM and LTR in vivo”.
